Test results published in patent publication US20090156668A1, “Ginkgolide Compounds, Compositions, And Extracts, And Uses Thereof” (priority 2004, published 2009).
Where two headings read alike, the source gives them in different places.

What was measured:
[1] = target: platelet activating factor (Homo sapiens, UniProt P25105); conditions: analogs obtained as racemates, cited from earlier work
[2] = tested on: beta-amyloid (1-42)-induced inhibition of long-term potentiation in the CA1 region of hippocampal slices; format: cell-based, mice
[3] = tested on: rat hippocampal neuron cultures; assay: neuroprotection assay: beta amyloid-induced neuronal cell death, viable cells by cell nuclei counting; conditions: for number of viable cells (control = 100%): ginkgolide 1 μM + oligomeric amyloid beta, mean±SEM of 3 experiments
[4] = read-out: anti-PAF IC50; analogs obtained as racemates; cited from earlier work

Sequence of platelet activating factor (P25105 whole entry): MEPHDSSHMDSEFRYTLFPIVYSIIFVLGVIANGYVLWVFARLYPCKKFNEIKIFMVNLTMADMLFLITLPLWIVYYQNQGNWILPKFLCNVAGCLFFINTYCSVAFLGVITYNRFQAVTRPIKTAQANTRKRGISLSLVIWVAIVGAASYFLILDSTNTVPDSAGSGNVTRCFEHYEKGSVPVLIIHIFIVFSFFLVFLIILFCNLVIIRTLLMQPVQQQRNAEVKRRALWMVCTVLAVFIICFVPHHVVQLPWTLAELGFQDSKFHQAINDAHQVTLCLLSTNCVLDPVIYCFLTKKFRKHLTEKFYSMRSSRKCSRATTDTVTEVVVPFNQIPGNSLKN

Compound | rescue of LTP (L-LTP) impairment in slices treated with Aβ [2] | number of viable cells (control = 100%) ([3]; 24 h) | also measured
CC1C(=O)OC2CC34C5CC(C(C)(C)C)C36C(=O)C(=O)OC6OC4(C(=O)O5)C21O (centres unmarked) [10-keto analog] | – | – | IC50 ([1]; read-out: anti-PAF IC50): 3.9 µM
CC(C)(C)[C@]1(O)CC2OC(=O)CC23C(=O)OC2OC(=O)[C@H](O)C231 (some centres unmarked) [BB, bilobalide] | does not rescue L-LTP impairment | – | –
C[C@@H]1C(=O)O[C@H]2CC34C5C[C@@H](C(C)(C)C)C36C(OC(=O)[C@@H]6O)OC4(C(=O)O5)[C@]21O (some centres unmarked) [Ginkgolide A] | rescued the LTP to the same values recorded in control untreated slices | 50.5±5.7% | consistently able to prevent amyloid beta-induced cell death ([3]; ginkgolide 1 μM, 24 h): not; IC50 [4]: 1.9 µM
C[C@@H]1C(=O)O[C@H]2CC34C5OC(=O)C3(OC3OC(=O)[C@H](O)C34[C@H](C(C)(C)C)[C@H]5O)[C@]21O (some centres unmarked) [Ginkgolide J] | rescued the LTP to the same values recorded in control untreated slices | 70.7±1.4% | consistently able to prevent amyloid beta-induced cell death [3]: consistently able to prevent cell death; more cells than the other treatments [3]: approximately 40%; prevention of amyloid beta toxicity [3]: appeared to completely prevent amyloid beta toxicity
Ginkgolide B [GB] | does not rescue L-LTP impairment | – | IC50 ([1]; read-out: anti-PAF activity IC50): 0.6 µM
Ginkgolide C [GC] | does not rescue L-LTP impairment | – | –
